In the supplement of paper PMC13207355:

Assays:
Conditions in all cases: exposure time: 72 h
[1] = tested on: E21 (patient-derived glioblastoma stem cells of mesenchymal subtype); assay: phenotypic distance (Euclidean, principal components) from DMSO controls (arbitrary units); higher = stronger morphological change
[2] = tested on: E31 (patient-derived glioblastoma stem cells of proneural subtype); assay: as above
[3] = tested on: E57 (patient-derived glioblastoma stem cells of mesenchymal subtype); assay: as above
[4] = tested on: E28 (patient-derived glioblastoma stem cells of classical subtype); assay: as above
[5] = tested on: E13 (patient-derived glioblastoma stem cells of classical subtype); assay: as above
[6] = tested on: FT3469 (normal neural stem cell line); assay: as above
[7] = tested on: E34 (patient-derived glioblastoma stem cells of proneural subtype); assay: as above
[8] = tested on: E21; assay: surviving fraction (nuclei count normalised to DMSO); higher = more cells surviving (less toxic)
[9] = tested on: E31; assay: as above
[10] = tested on: E57; assay: as above
[11] = tested on: E28; assay: as above
[12] = tested on: E13; assay: as above
[13] = tested on: FT3469; assay: as above
[14] = tested on: E34; assay: as above
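Throughout, for phenotypic distance (Euclidean, principal components) from DMSO controls: cell Painting imaging in 384-well plates, CellProfiler features reduced to at least 20 principal components, Euclidean distance versus same-plate DMSO vehicle wells (0.1% v/v), median over six images per well.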
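Throughout, for surviving fraction (nuclei count normalised to DMSO): nuclei counted by high-content imaging of Hoechst-stained cells in laminin-coated 384-well plates, relative to 0.1% DMSO vehicle wells, with staurosporine as cell-death control.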

CC[N+](CC)(CC)CCOc1ccc(/C=C/c2ccccc2)cc1 [MG 624]
Conditions | phenotypic distance | surviving fraction
[1], 4.1 nM | 0.724 | –
[1], 12.3 nM | 0.703 | –
[1], 37 nM | 0.669 | –
[1], 111.1 nM | 0.982 | –
[1], 333.3 nM | 1.38 | –
[1], 1000 nM | 1.38 | –
[1], 3000 nM | 2.84 | –
[2], 4.1 nM | 2.31 | –
[2], 12.3 nM | 2.34 | –
[2], 37 nM | 0.662 | –
[2], 111.1 nM | 1.14 | –
[2], 333.3 nM | 1.83 | –
[2], 1000 nM | 2.39 | –
[2], 3000 nM | 3.97 | –
[3], 4.1 nM | 0.764 | –
[3], 12.3 nM | 0.906 | –
[3], 37 nM | 0.99 | –
[3], 111.1 nM | 1.14 | –
[3], 333.3 nM | 1.29 | –
[3], 1000 nM | 1.55 | –
[3], 3000 nM | 1.49 | –
[4], 4.1 nM | 2.26 | –
[4], 12.3 nM | 1.2 | –
[4], 37 nM | 0.981 | –
[4], 111.1 nM | 1.14 | –
[4], 333.3 nM | 1.59 | –
[4], 1000 nM | 0.807 | –
[4], 3000 nM | 0.948 | –
[5], 4.1 nM | 0.785 | –
[5], 12.3 nM | 1.16 | –
[5], 37 nM | 0.769 | –
[5], 111.1 nM | 0.848 | –
[5], 333.3 nM | 1.65 | –
[5], 1000 nM | 2.21 | –
[5], 3000 nM | 2.89 | –
[6], 4.1 nM | 0.491 | –
[6], 12.3 nM | 1.05 | –
[6], 37 nM | 0.814 | –
[6], 111.1 nM | 1.61 | –
[6], 333.3 nM | 1.29 | –
[6], 1000 nM | 1.26 | –
[6], 3000 nM | 1.36 | –
[7], 4.1 nM | 0.531 | –
[7], 12.3 nM | 0.708 | –
[7], 37 nM | 1 | –
[7], 111.1 nM | 0.94 | –
[7], 333.3 nM | 1.4 | –
[7], 1000 nM | 1.76 | –
[7], 3000 nM | 0.649 | –
[8], 4.1 nM | – | 0.978
[8], 12.3 nM | – | 0.972
[8], 37 nM | – | 0.961
[8], 111.1 nM | – | 1.05
[8], 333.3 nM | – | 1.02
[8], 1000 nM | – | 0.929
[8], 3000 nM | – | 0.748
[9], 4.1 nM | – | 1.02
[9], 12.3 nM | – | 1.02
[9], 37 nM | – | 0.927
[9], 111.1 nM | – | 1.22
[9], 333.3 nM | – | 1.03
[9], 1000 nM | – | 1.11
[9], 3000 nM | – | 0.671
[10], 4.1 nM | – | 0.981
[10], 12.3 nM | – | 0.982
[10], 37 nM | – | 1.06
[10], 111.1 nM | – | 1.1
[10], 333.3 nM | – | 1.15
[10], 1000 nM | – | 0.922
[10], 3000 nM | – | 1.05
[11], 4.1 nM | – | 1.04
[11], 12.3 nM | – | 1.24
[11], 37 nM | – | 0.999
[11], 111.1 nM | – | 1.11
[11], 333.3 nM | – | 1.29
[11], 1000 nM | – | 0.97
[11], 3000 nM | – | 0.897
[12], 4.1 nM | – | 0.872
[12], 12.3 nM | – | 1.01
[12], 37 nM | – | 0.904
[12], 111.1 nM | – | 0.898
[12], 333.3 nM | – | 0.819
[12], 1000 nM | – | 0.958
[12], 3000 nM | – | 0.636
[13], 4.1 nM | – | 0.999
[13], 12.3 nM | – | 0.934
[13], 37 nM | – | 1.26
[13], 111.1 nM | – | 1.25
[13], 333.3 nM | – | 1.13
[13], 1000 nM | – | 1.12
[13], 3000 nM | – | 1.03
[14], 4.1 nM | – | 1.13
[14], 12.3 nM | – | 0.931
[14], 37 nM | – | 0.93
[14], 111.1 nM | – | 0.904
[14], 333.3 nM | – | 1.06
[14], 1000 nM | – | 1.1
[14], 3000 nM | – | 0.853
